ChEMBL document CHEMBL1287667, “A targeted low molecular weight near-infrared fluorescent probe for prostate cancer” (Bioorg Med Chem Lett, 2010)
Activity calls are given as the source filed them. No cut-off for these calls is given here.

Tests used:
[1] = molecular target: T1, Glutamate carboxypeptidase 2 (Homo sapiens, UniProt Q04609); assay: Inhibition of PSMA in human LNCaP cells; format: cell-based
Target sequence in this assay (Q04609 whole entry): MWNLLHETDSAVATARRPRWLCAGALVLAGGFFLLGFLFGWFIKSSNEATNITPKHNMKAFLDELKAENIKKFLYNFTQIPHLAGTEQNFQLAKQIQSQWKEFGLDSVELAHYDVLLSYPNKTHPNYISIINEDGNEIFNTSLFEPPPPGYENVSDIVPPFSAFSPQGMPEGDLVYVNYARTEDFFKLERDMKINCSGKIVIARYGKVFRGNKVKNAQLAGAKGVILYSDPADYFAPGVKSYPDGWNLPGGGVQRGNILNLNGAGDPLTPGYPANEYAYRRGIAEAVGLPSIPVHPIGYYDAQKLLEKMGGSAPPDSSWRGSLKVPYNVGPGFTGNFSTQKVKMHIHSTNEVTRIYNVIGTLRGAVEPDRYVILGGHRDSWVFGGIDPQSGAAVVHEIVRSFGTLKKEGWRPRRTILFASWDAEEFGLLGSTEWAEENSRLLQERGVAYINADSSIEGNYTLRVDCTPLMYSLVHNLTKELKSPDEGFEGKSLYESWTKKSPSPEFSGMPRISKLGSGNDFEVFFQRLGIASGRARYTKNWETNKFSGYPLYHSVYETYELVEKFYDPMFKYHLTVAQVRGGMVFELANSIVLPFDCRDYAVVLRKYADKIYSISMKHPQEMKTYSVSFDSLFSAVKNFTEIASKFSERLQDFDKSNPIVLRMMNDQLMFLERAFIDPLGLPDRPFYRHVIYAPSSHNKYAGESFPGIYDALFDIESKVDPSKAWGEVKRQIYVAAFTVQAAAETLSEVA

[2] = molecular target: T1, Glutamate carboxypeptidase 2; assay: Reversible inhibition of purified PSMA at 10 times IC50 after 25 mins measured after 100 fold dilution
Target sequence in this assay (Q04609 whole entry, looked up): as the sequence (Q04609 whole entry) above

SMILES: CCN1/C(=C/C=C/C=C/C2=[N+](CCCCCC(=O)N[C@@H](CCC(=O)N[C@@H](COP(=O)([O-])O[C@@H](CCC(=O)O)C(=O)O)C(=O)O)C(=O)O)c3ccc4c(S(=O)(=O)O)cc(S(=O)(=O)O)cc4c3C2(C)C)C(C)(C)c2c1ccc1c(S(=O)(=O)O)cc(S(=O)(=O)O)cc21
- IC50 [1]: 0.55 nM
- Activity [2]: Active

SMILES: N[C@@H](CCC(=O)N[C@@H](COP(=O)(O)O[C@@H](CCC(=O)O)C(=O)O)C(=O)O)C(=O)O
- IC50 [1]: 144 nM
- Activity [2]: Active

SMILES: CCN1/C(=C/C=C/C=C/C2=[N+](CCCCCC(=O)[O-])c3ccc4c(S(=O)(=O)O)cc(S(=O)(=O)O)cc4c3C2(C)C)C(C)(C)c2c1ccc1c(S(=O)(=O)O)cc(S(=O)(=O)O)cc21
- IC50 [1]: 6100 nM
